Test: xn = mol fraction of the nth substance listed
Details: 100 kPa, Liquid; for viscosity: Concentric cylinders viscometry; for mass density: Vibrating tube method

CCCCCCCC(=O)OCC [ethyl octanoate] + CC(C)CCO
Details | mass density [kg/m3] | viscosity [mPa·s]
288.15 K, x1 = 0.1 | 822.09 | 3.559
288.15 K, x1 = 0.2001 | 830.4 | 2.806
288.15 K, x1 = 0.3 | 837.58 | 2.382
288.15 K, x1 = 0.4 | 843.9 | 2.117
288.15 K, x1 = 0.5001 | 849.54 | 1.951
288.15 K, x1 = 0.5999 | 854.63 | 1.856
288.15 K, x1 = 0.7003 | 859.29 | 1.759
288.15 K, x1 = 0.7998 | 863.5 | 1.716
288.15 K, x1 = 0.9001 | 867.37 | 1.687
288.15 K, x1 = 1 | 870.88 | 1.686
293.15 K, x1 = 0.1 | 818.23 | 3.06
293.15 K, x1 = 0.2001 | 826.44 | 2.439
293.15 K, x1 = 0.3 | 833.53 | 2.11
293.15 K, x1 = 0.4 | 839.78 | 1.891
293.15 K, x1 = 0.5001 | 845.38 | 1.752
293.15 K, x1 = 0.5999 | 850.42 | 1.673
293.15 K, x1 = 0.7003 | 855.04 | 1.593
293.15 K, x1 = 0.7998 | 859.23 | 1.557
293.15 K, x1 = 0.9001 | 863.07 | 1.534
293.15 K, x1 = 1 | 866.58 | 1.537
298.15 K, x1 = 0.1 | 814.36 | 2.684
298.15 K, x1 = 0.2001 | 822.46 | 2.177
298.15 K, x1 = 0.3 | 829.47 | 1.885
298.15 K, x1 = 0.4 | 835.66 | 1.702
298.15 K, x1 = 0.5001 | 841.2 | 1.586
298.15 K, x1 = 0.5999 | 846.2 | 1.518
298.15 K, x1 = 0.7003 | 850.78 | 1.451
298.15 K, x1 = 0.7998 | 854.94 | 1.422
298.15 K, x1 = 0.9001 | 858.77 | 1.404
298.15 K, x1 = 1 | 862.28 | 1.41
303.15 K, x1 = 0.1 | 810.47 | 2.351
303.15 K, x1 = 0.2001 | 818.46 | 1.936
303.15 K, x1 = 0.3 | 825.39 | 1.693
303.15 K, x1 = 0.4 | 831.52 | 1.537
303.15 K, x1 = 0.5001 | 837.01 | 1.44
303.15 K, x1 = 0.5999 | 841.96 | 1.385
303.15 K, x1 = 0.7003 | 846.52 | 1.327
303.15 K, x1 = 0.7998 | 850.66 | 1.305
303.15 K, x1 = 0.9001 | 854.47 | 1.292
303.15 K, x1 = 1 | 857.98 | 1.298
308.15 K, x1 = 0.1 | 806.56 | 2.077
308.15 K, x1 = 0.2001 | 814.45 | 1.73
308.15 K, x1 = 0.3 | 821.3 | 1.527
308.15 K, x1 = 0.4 | 827.36 | 1.398
308.15 K, x1 = 0.5001 | 832.81 | 1.315
308.15 K, x1 = 0.5999 | 837.72 | 1.267
308.15 K, x1 = 0.7003 | 842.25 | 1.221
308.15 K, x1 = 0.7998 | 846.36 | 1.202
308.15 K, x1 = 0.9001 | 850.16 | 1.195
308.15 K, x1 = 1 | 853.68 | 1.2
313.15 K, x1 = 0.1 | 802.62 | 1.845
313.15 K, x1 = 0.2001 | 810.42 | 1.559
313.15 K, x1 = 0.3 | 817.19 | 1.389
313.15 K, x1 = 0.4 | 823.19 | 1.281
313.15 K, x1 = 0.5001 | 828.58 | 1.211
313.15 K, x1 = 0.5999 | 833.46 | 1.17
313.15 K, x1 = 0.7003 | 837.96 | 1.132
313.15 K, x1 = 0.7998 | 842.05 | 1.116
313.15 K, x1 = 0.9001 | 845.85 | 1.112
313.15 K, x1 = 1 | 849.37 | 1.118
318.15 K, x1 = 0.1 | 798.65 | 1.639
318.15 K, x1 = 0.2001 | 806.35 | 1.401
318.15 K, x1 = 0.3 | 813.06 | 1.258
318.15 K, x1 = 0.4 | 819 | 1.167
318.15 K, x1 = 0.5001 | 824.35 | 1.108
318.15 K, x1 = 0.5999 | 829.19 | 1.074
318.15 K, x1 = 0.7003 | 833.67 | 1.042
318.15 K, x1 = 0.7998 | 837.74 | 1.03
318.15 K, x1 = 0.9001 | 841.53 | 1.028
318.15 K, x1 = 1 | 845.06 | 1.035
323.15 K, x1 = 0.1 | 794.65 | 1.48
323.15 K, x1 = 0.2001 | 802.26 | 1.281
323.15 K, x1 = 0.3 | 808.9 | 1.157
323.15 K, x1 = 0.4 | 814.79 | 1.078
323.15 K, x1 = 0.5001 | 820.1 | 1.028
323.15 K, x1 = 0.5999 | 824.91 | 0.9986
323.15 K, x1 = 0.7003 | 829.36 | 0.9718
323.15 K, x1 = 0.7998 | 833.43 | 0.9628
323.15 K, x1 = 0.9001 | 837.21 | 0.9653
323.15 K, x1 = 1 | 840.74 | 0.9708

CCCCCCCC(=O)OCC [ethyl octanoate] + CC(C)CO
Details | mass density [kg/m3] | viscosity [mPa·s]
288.15 K, x1 = 0.1001 | 817.82 | 3.229
288.15 K, x1 = 0.1999 | 827.81 | 2.537
288.15 K, x1 = 0.3 | 836.01 | 2.169
288.15 K, x1 = 0.4 | 843.08 | 1.977
288.15 K, x1 = 0.5 | 849.18 | 1.851
288.15 K, x1 = 0.5999 | 854.5 | 1.766
288.15 K, x1 = 0.6999 | 859.21 | 1.703
288.15 K, x1 = 0.7999 | 863.44 | 1.677
288.15 K, x1 = 0.9 | 867.3 | 1.677
288.15 K, x1 = 1 | 870.88 | 1.686
293.15 K, x1 = 0.1001 | 813.83 | 2.762
293.15 K, x1 = 0.1999 | 823.71 | 2.22
293.15 K, x1 = 0.3 | 831.83 | 1.921
293.15 K, x1 = 0.4 | 838.85 | 1.768
293.15 K, x1 = 0.5 | 844.91 | 1.661
293.15 K, x1 = 0.5999 | 850.21 | 1.593
293.15 K, x1 = 0.6999 | 854.9 | 1.543
293.15 K, x1 = 0.7999 | 859.12 | 1.523
293.15 K, x1 = 0.9 | 862.98 | 1.524
293.15 K, x1 = 1 | 866.58 | 1.537
298.15 K, x1 = 0.1001 | 809.81 | 2.416
298.15 K, x1 = 0.1999 | 819.58 | 1.961
298.15 K, x1 = 0.3 | 827.63 | 1.716
298.15 K, x1 = 0.4 | 834.6 | 1.592
298.15 K, x1 = 0.5 | 840.63 | 1.503
298.15 K, x1 = 0.5999 | 845.9 | 1.447
298.15 K, x1 = 0.6999 | 850.58 | 1.407
298.15 K, x1 = 0.7999 | 854.81 | 1.393
298.15 K, x1 = 0.9 | 858.67 | 1.393
298.15 K, x1 = 1 | 862.28 | 1.41
303.15 K, x1 = 0.1001 | 805.76 | 2.111
303.15 K, x1 = 0.1999 | 815.43 | 1.74
303.15 K, x1 = 0.3 | 823.41 | 1.541
303.15 K, x1 = 0.4 | 830.32 | 1.44
303.15 K, x1 = 0.5 | 836.32 | 1.364
303.15 K, x1 = 0.5999 | 841.57 | 1.321
303.15 K, x1 = 0.6999 | 846.25 | 1.289
303.15 K, x1 = 0.7999 | 850.48 | 1.278
303.15 K, x1 = 0.9 | 854.35 | 1.283
303.15 K, x1 = 1 | 857.98 | 1.298
308.15 K, x1 = 0.1001 | 801.68 | 1.854
308.15 K, x1 = 0.1999 | 811.24 | 1.554
308.15 K, x1 = 0.3 | 819.16 | 1.389
308.15 K, x1 = 0.4 | 826.03 | 1.307
308.15 K, x1 = 0.5 | 832 | 1.246
308.15 K, x1 = 0.5999 | 837.24 | 1.21
308.15 K, x1 = 0.6999 | 841.91 | 1.186
308.15 K, x1 = 0.7999 | 846.14 | 1.179
308.15 K, x1 = 0.9 | 850.03 | 1.184
308.15 K, x1 = 1 | 853.68 | 1.2
313.15 K, x1 = 0.1001 | 797.55 | 1.642
313.15 K, x1 = 0.1999 | 807.02 | 1.399
313.15 K, x1 = 0.3 | 814.88 | 1.264
313.15 K, x1 = 0.4 | 821.71 | 1.196
313.15 K, x1 = 0.5 | 827.66 | 1.148
313.15 K, x1 = 0.5999 | 832.89 | 1.119
313.15 K, x1 = 0.6999 | 837.56 | 1.1
313.15 K, x1 = 0.7999 | 841.8 | 1.096
313.15 K, x1 = 0.9 | 845.7 | 1.103
313.15 K, x1 = 1 | 849.37 | 1.118
318.15 K, x1 = 0.1001 | 793.38 | 1.453
318.15 K, x1 = 0.1999 | 802.76 | 1.254
318.15 K, x1 = 0.3 | 810.56 | 1.144
318.15 K, x1 = 0.4 | 817.36 | 1.089
318.15 K, x1 = 0.5 | 823.29 | 1.05
318.15 K, x1 = 0.5999 | 828.51 | 1.027
318.15 K, x1 = 0.6999 | 833.19 | 1.013
318.15 K, x1 = 0.7999 | 837.45 | 1.012
318.15 K, x1 = 0.9 | 841.37 | 1.02
318.15 K, x1 = 1 | 845.06 | 1.035
323.15 K, x1 = 0.1001 | 789.15 | 1.308
323.15 K, x1 = 0.1999 | 798.46 | 1.144
323.15 K, x1 = 0.3 | 806.21 | 1.052
323.15 K, x1 = 0.4 | 812.99 | 1.006
323.15 K, x1 = 0.5 | 818.9 | 0.975
323.15 K, x1 = 0.5999 | 824.13 | 0.9556
323.15 K, x1 = 0.6999 | 828.81 | 0.9463
323.15 K, x1 = 0.7999 | 833.08 | 0.9462
323.15 K, x1 = 0.9 | 837.02 | 0.9546
323.15 K, x1 = 1 | 840.74 | 0.9708

Source: the NIST ThermoML archive (doi:10.1016/j.jct.2016.09.030)
